This note sets out measurements from ChEMBL document CHEMBL3112480, “γ-Alkylidene-γ-lactones and isobutylpyrrol-2(5H)-ones analogues to rubrolides as inhibitors of biofilm formation by gram-positive and gram-negative bacteria” (Bioorg Med Chem Lett, 2014).

SMILES strings stand for the structures.

The test system of one test is Staphylococcus epidermidis. Put plainly: Antibacterial activity against Staphylococcus epidermidis ATCC 35547 assessed as effect on planktonic growth at 10.9 ug/ml after 20 hrs relative to control. The class given is functional.
Settings: not given
Take `COc1ccc(Br)cc1C1=C(Br)C(=O)N(CC(C)C)/C1=C/c1ccc(Br)cc1`: the Activity came out at 1%.

Another test deals with Staphylococcus aureus. Put plainly: Antibacterial activity against Staphylococcus aureus ATCC 25923 assessed as effect on planktonic growth at 2.73 ug/ml after 20 hrs relative to control.
Settings: not given
The class given is functional.
As to `COc1ccc(Br)cc1C1=C(Br)C(=O)N(CC(C)C)/C1=C/c1ccc(Br)cc1`, the Activity was found to be 15.4%.

Another test concerns Pseudomonas aeruginosa. Put plainly: Antibacterial activity against Pseudomonas aeruginosa ATCC 27853 assessed as effect on planktonic growth at 0.68 ug/ml after 20 hrs relative to control. The class given is functional.
Settings: not given
On to `COc1ccc(Br)cc1C1=C(Br)C(=O)N(CC(C)C)/C1=C/c1ccc(Br)cc1`, for which the Activity is -5.5%.

In another test the test system is Staphylococcus aureus. Put plainly: Antibacterial activity against Staphylococcus aureus ATCC 25923 assessed as effect on planktonic growth at 21.9 ug/ml after 20 hrs relative to control. Format: functional.
Settings: not given
As for `COc1ccc(Br)cc1C1=C(Br)C(=O)N(CC(C)C)/C1=C/c1ccc(Br)cc1`, the Activity was 27.8%.

The test system of a further test is Staphylococcus aureus. Put plainly: Antibacterial activity against Staphylococcus aureus ATCC 25923 assessed as effect on planktonic growth at 5.5 ug/ml after 20 hrs relative to control. Format: functional.
Settings: not given
In the case of `COc1ccc(Br)cc1C1=C(Br)C(=O)N(CC(C)C)/C1=C/c1ccc(Br)cc1`, the Activity is 14.9%.

In the next test the test system is Staphylococcus aureus. Put plainly: Antibacterial activity against Staphylococcus aureus ATCC 25923 assessed as effect on planktonic growth at 10.9 ug/ml after 20 hrs relative to control. Format: functional.
Settings: not given
As for `COc1ccc(Br)cc1C1=C(Br)C(=O)N(CC(C)C)/C1=C/c1ccc(Br)cc1`, the Activity is on record as 16.8%.

A further test has as its system Staphylococcus aureus. Put plainly: Antibacterial activity against Staphylococcus aureus ATCC 25923 assessed as effect on planktonic growth at 43.8 ug/ml after 20 hrs relative to control. The class given is functional.
Settings: not given
On to `COc1ccc(Br)cc1C1=C(Br)C(=O)N(CC(C)C)/C1=C/c1ccc(Br)cc1`, for which the Activity came to 36.6%.

In the next test the test system is Streptococcus mutans. Put plainly: Antibacterial activity against Streptococcus mutans ATCC 25175 assessed as effect on planktonic growth at 0.17 ug/ml after 20 hrs relative to control. Format: functional.
Settings: not given
With `COc1ccc(Br)cc1C1=C(Br)C(=O)N(CC(C)C)/C1=C/c1ccc(Br)cc1`, the Activity was determined as 13.9%.

The next test deals with Pseudomonas aeruginosa. Put plainly: Antibacterial activity against Pseudomonas aeruginosa ATCC 27853 assessed as effect on planktonic growth at 0.34 ug/ml after 20 hrs relative to control. Format: functional.
Settings: not given
Consider `COc1ccc(Br)cc1C1=C(Br)C(=O)N(CC(C)C)/C1=C/c1ccc(Br)cc1`, for which the Activity is listed as 2.6%.

Another test has as its system Streptococcus mutans. Put plainly: Antibacterial activity against Streptococcus mutans ATCC 25175 assessed as effect on planktonic growth at 43.8 ug/ml after 20 hrs relative to control.
Settings: not given
Format: functional.
With `COc1ccc(Br)cc1C1=C(Br)C(=O)N(CC(C)C)/C1=C/c1ccc(Br)cc1`, the Activity amounted to 9%.

In the next test the test system is Staphylococcus epidermidis. Put plainly: Antibacterial activity against Staphylococcus epidermidis ATCC 35547 assessed as effect on planktonic growth at 1.37 ug/ml after 20 hrs relative to control.
Settings: not given
The class given is functional.
On to `COc1ccc(Br)cc1C1=C(Br)C(=O)N(CC(C)C)/C1=C/c1ccc(Br)cc1`, for which the Activity is -1.2%.

In another test the test system is Streptococcus mutans. Put plainly: Antibacterial activity against Streptococcus mutans ATCC 25175 assessed as effect on planktonic growth at 10.9 ug/ml after 20 hrs relative to control. The class given is functional.
Settings: not given
Turning to `COc1ccc(Br)cc1C1=C(Br)C(=O)N(CC(C)C)/C1=C/c1ccc(Br)cc1`, the Activity is 7.6%.

A further test relates to Staphylococcus epidermidis. Put plainly: Antibacterial activity against Staphylococcus epidermidis ATCC 35547 assessed as effect on planktonic growth at 43.8 ug/ml after 20 hrs relative to control. Format: functional.
Settings: not given
Regarding `COc1ccc(Br)cc1C1=C(Br)C(=O)N(CC(C)C)/C1=C/c1ccc(Br)cc1`, the Activity was found to be 7.7%.

The test system of another test is Streptococcus mutans. Put plainly: Antibacterial activity against Streptococcus mutans ATCC 25175 assessed as effect on planktonic growth at 0.34 ug/ml after 20 hrs relative to control. The class given is functional.
Settings: not given
In the case of `COc1ccc(Br)cc1C1=C(Br)C(=O)N(CC(C)C)/C1=C/c1ccc(Br)cc1`, the Activity is 12%.

For a further test, the system named is Streptococcus mutans. Put plainly: Antibacterial activity against Streptococcus mutans ATCC 25175 assessed as effect on planktonic growth at 2.73 ug/ml after 20 hrs relative to control. The class given is functional.
Settings: not given
In the case of `COc1ccc(Br)cc1C1=C(Br)C(=O)N(CC(C)C)/C1=C/c1ccc(Br)cc1`, the Activity amounted to 12%.

The next test deals with Pseudomonas aeruginosa. Put plainly: Antibacterial activity against Pseudomonas aeruginosa ATCC 27853 assessed as effect on planktonic growth at 5.5 ug/ml after 20 hrs relative to control. Format: functional.
Settings: not given
For `COc1ccc(Br)cc1C1=C(Br)C(=O)N(CC(C)C)/C1=C/c1ccc(Br)cc1`, the Activity is -16.1%.

For another test, the system named is Staphylococcus epidermidis. Put plainly: Antibacterial activity against Staphylococcus epidermidis ATCC 35547 assessed as inhibition of biofilm formation after 20 hrs by crystal-violet staining method.
Settings: not given
The class given is functional, organism-based.
For the molecule `COc1ccc(Br)cc1C1=C(Br)C(=O)N(CC(C)C)/C1=C/c1ccc(Br)cc1`, the inhibition result was “Dose-dependent effect”.

The same test, now with this note: ATCC 35547, 20 h.
In general, IC50 refers to the concentration that gives 50% inhibition. For the molecule `COc1ccc(Br)cc1C1=C(Br)C(=O)N(CC(C)C)/C1=C/c1ccc(Br)cc1`, the IC50 is above 87.5 µg/mL.

The subject of a further test is Pseudomonas aeruginosa. Put plainly: Antibacterial activity against Pseudomonas aeruginosa ATCC 27853 assessed as effect on planktonic growth at 43.8 ug/ml after 20 hrs relative to control. The class given is functional.
Settings: not given
In the case of `COc1ccc(Br)cc1C1=C(Br)C(=O)N(CC(C)C)/C1=C/c1ccc(Br)cc1`, the Activity is given as -6.2%.

The next test relates to Staphylococcus aureus. Put plainly: Antibacterial activity against Staphylococcus aureus ATCC 25923 assessed as effect on planktonic growth at 87.5 ug/ml after 20 hrs relative to control. Format: functional.
Settings: not given
With `COc1ccc(Br)cc1C1=C(Br)C(=O)N(CC(C)C)/C1=C/c1ccc(Br)cc1`, the Activity amounted to 68.6%.

The subject of another test is Pseudomonas aeruginosa. Put plainly: Antibacterial activity against Pseudomonas aeruginosa ATCC 27853 assessed as effect on planktonic growth at 87.5 ug/ml after 20 hrs relative to control. Format: functional.
Settings: not given
Consider `COc1ccc(Br)cc1C1=C(Br)C(=O)N(CC(C)C)/C1=C/c1ccc(Br)cc1`, for which the Activity is -8.2%.

For a further test, the system named is Streptococcus mutans. Put plainly: Antibacterial activity against Streptococcus mutans ATCC 25175 assessed as effect on planktonic growth at 0.68 ug/ml after 20 hrs relative to control. The class given is functional.
Settings: not given
Consider `COc1ccc(Br)cc1C1=C(Br)C(=O)N(CC(C)C)/C1=C/c1ccc(Br)cc1`, for which the Activity is 14.4%.
